Literature values, collected in patent publication US8690839B2, “Devices for delivering a medicament and connector for same” (priority 2008, dated 2014).

Tests used:
[1] = for onset (in words): in vivo
[2] = in vivo

Compound	onset (in words) [1]	toxic dose [2]	onset time ([1]; topical use)
CCCN1CCCC[C@H]1C(=O)Nc1c(C)cccc1C [Ropivacaine, ropivacaine]	slow onset	about 175 mg	–
CCCCNc1ccc(C(=O)OCCN(C)C)cc1 [Tetracaine, tetracaine]	fast onset	–	–
CCOC(=O)c1ccc(N)cc1 [Benzocaine, benzocaine]	–	> 200 mg	about 30 seconds
